From patent US7009036B2, “Peptide inhibiting platelet derived growth factor (PDGF-BB) and fibroblast growth factor (bFGF) activity” (Provincia Italiana Della Congregazione Dei Figli …, priority 2001, dated 2006)
Ends that are not written are not given here.

Tests used:
[1] = test system: primary bovine aortic endothelial cells (BAEC); assay: Proliferation assay, BAEC; type: cell-based; details: 0.1% BSA alone, no growth factor; any time
Method: (§1) This test was carried out on Primary rat aorta smooth muscle cells (RASMC) obtained from six-month old male Wistar rats following a well known technique (Sterpetti, A. V. et al., 1992, J. Vasc. Surg., 6, 16–20); primary bovine aortic endothelial cells (BAEC) were obtained according to previously described protocols (D'Arcangelo, D. et al., 2000, Circ.Res., 86, 312–318).
(§2) Proliferation assay was carried out on primary rat aorta SMC and on primary bovine aortic endothelial cells (BAEC). Cells were plated in six-well plates (1×10^5 cells/plate) and grown for 24 hours in Dulbecco Modified eagle's medium (DMEM) supplemented with 10% FBS, at 37° C. in 5% CO2. Then, the medium was replaced with DMEM medium containing 0.1% BSA for 24 hours. Subsequently, the medium was replaced with fresh medium containing either 0.1% BSA alone or 0.1% BSA with growth factors at 10 ng/ml final concentration or fetal calf serum (FCS) al 10%, in the absence or in the presence of PEP1 or control peptide. Each assay was carried out for mounting period of time up to a maximum time of three days and the cell were harvested and counted with hemacytometer.

[2] = test system: primary rat aorta smooth muscle cells (RASMC); assay: Proliferation assay, RASMC; type: cell-based; details: 0.1% BSA alone, no growth factor; any time
Method: as §1, §2

DPHIKLQLQAE [PEP1, Asp-Pro-His-Ile-Lys-Leu-Gln-Leu-Gln-Ala-Glu]
effect on spontaneous proliferation (toxicity per se), BAEC [1]: not significantly affected | effect on spontaneous proliferation (toxicity per se), RASMC [2]: not significantly affected
